Data reported in BindingDB's records for doi:10.1021/acs.jmedchem.9b01348 (West China Hospital of Sichuan University, 2019).

Experiment: Inhibition of JAK2 V617F mutant in BAF3 cells assessed as reduction in cell growth measured after 72 hrs by MTT assay

SMILES: C1=C/COCc2cc(ccc2OCCN2CCCC2)Nc2nccc(n2)-c2cccc(c2)COC/1 [ONX-0803]
- IC50: 1060 nM
